The record followed here is patent US20140162285A1, “Methods of Modulating Vesicular Trafficking” (The General Hospital Corporation, priority 2009, published 2014).

Peptide text beside a SMILES is read from it. * marks the point of attachment. Biotin = O=C1N[C@H]2[C@H](CS[C@H]2CCCCC(=O)*)N1

The target of one test is T1, PB-domain of ARNO (Homo sapiens, UniProt Q99418).
T1 construct: v) 379-400aa, polybasic (PB) domain; made in house; host or cells: E. coli BL21(DE3)
As to the kind of experiment: a2N-derived peptide pull-down with GST-PB domain. In kind it is binding. As for the experimental part:
FIGS. 5A-C are a set of three images of Western blots showing the identification of interaction motif of a2N that is involved in specific binding with the Sec7 domain of ARNO. 5A, The catalytic Sec7 domain of ARNO interacts with two a2N-derived peptides, a2N-01 and a2N-03, in pull-down experiments. The peptide pull-down assay was performed with six a2N-derived interaction peptides immobilized on streptavidin-beads and incubated with purified recombinant GST-only or GST-Sec7 domain. Interacting complexes were eluted and analyzed by Western blotting using monoclonal anti-GST antibodies as described below. The loading controls for GST-only (lane 1) or GST-Sec7 (lane 2) are shown. […] The peptide pull-down assay was performed with peptides a2N-01 and a2N-03 immobilized on streptavidin-beads and incubated with purified recombinant GST-PH domain (5B) or GST-PB domain (5C). Interacting complexes were eluted and analyzed by Western blotting using monoclonal anti-GST antibodies. […]
These a2N-derived peptides were immobilized by an N-terminal biotin-tag, which ensured the same efficiency and equivalent binding to streptavidin-agarose beads. […] After washing beads four times in ice-cold binding buffer, the interacting complexes were eluted by boiling in SDS-PAGE sample buffer for 10 min at 95° C., resolved by SDS-PAGE and analyzed by Western blotting using monoclonal anti-GST antibody. […]

A further test addresses T2, ARNO PH-domain (Homo sapiens, UniProt Q99418).
T2 construct: iv) 253-378aa, plekstrin-homology (PH) domain; made in house; host or cells: E. coli BL21(DE3)
T2 sequence (Q99418 253-378): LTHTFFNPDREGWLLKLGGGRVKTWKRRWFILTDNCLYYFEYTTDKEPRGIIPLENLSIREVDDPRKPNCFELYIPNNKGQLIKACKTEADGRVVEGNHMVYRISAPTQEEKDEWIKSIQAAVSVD
Briefly: GST pull-down of in vitro translated a2N with ARNO PH-domain. In kind it is binding. The conditions noted are these: Western blot anti-a2N. The method, then: The purified recombinant GST-ARNO(wt) and GST-tagged ARNO domain constructs ([…]) were incubated with 10 μl of in vitro translated 6His-a2N recombinant protein at 4° C. for 2 hours in 500 μl of binding buffer (10 mM HEPES, 1 mM EDTA, 1 mM DTT, 100 mM NaCl, 10% glycerol, 0.1% NP-40) with gentle rotation. Then the interacting recombinant proteins were immobilized on glutathione beads by incubation with 50 μl of 50% glutathione Sepharose 4B slurry for 2 hours at 4° C. The beads were collected by centrifugation and washed 5 times with 500 μl ice-cold binding buffer. Interacting proteins were eluted by boiling in SDS-PAGE sample buffer for 10 min at 95° C., resolved by SDS-PAGE and analyzed by Western blotting using polyclonal anti-a2N antibodies. […]
To examine the ability of these well-defined and functionally distinct domains of ARNO to interact with a2N1-402, full-length ARNO(wt) and its four domains were cloned separately for bacterial expression of recombinant proteins (FIG. 3). […] Interacting proteins were detected by western blot analysis with a2-specific antibodies as described above.

T1 sequence (Q99418 379-400 limits assumed): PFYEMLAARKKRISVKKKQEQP

As to `CSCC[C@H](NC(=O)CCCC[C@@H]1SC[C@@H]2NC(=O)N[C@@H]21)C(=O)NCC(=O)N[C@@H](CO)C(=O)N[C@@H](CC(C)C)C(=O)N[C@@H](Cc1ccccc1)C(=O)N[C@@H](CCCNC(=N)N)C(=O)N[C@@H](CO)C(=O)N[C@@H](CCC(=O)O)C(=O)N[C@@H](CO)C(=O)N[C@@H](CCSC)C(=O)N[C@@H](CS)C(=O)N[C@@H](CC(C)C)C(=O)N[C@@H](C)C(=O)N[C@@H](CCC(N)=O)C(=O)N[C@@H](CC(C)C)C(=O)N[C@@H](Cc1ccccc1)C(=O)N[C@@H](CC(C)C)C(=O)N[C@@H](CS)C(=O)O` [a2N-01, Bio-MGSLFRSE SMCLAQLFL-Cys] (Biotin-MGSLFRSESMCLAQLFLC-OH; N-terminus and C-terminus assumed), the “interaction with PB-domain of ARNO” value on PB-domain of ARNO is “does not interact”.

B1: a2N: recombinant N-terminal cytosolic tail, amino acid residues 1-402 of mouse V-ATPase a2-subunit (protein)
chain: MGSLFRSESMCLAQLFLQSGTAYECLSALGEKGLVQFRDLNQNVSSFQRKFVGEVKRCEELERILVYLVQEITRADIPLPEGEASPPAPPLKHVLEMQEQLQKLEVELREVTKNKEKLRKNLLELVEYTHMLRVTKTFLKRNVEFEPTYEEFPALENDSLLDYSCMQRLGAKLGFVSGLIQQGRVEAFERMLWRACKGYTIVTYAELDECLEDPETGEVIKWYVFLISFWGEQIGHKVKKICDCYHCHIYPYPNTAEERREIQEGLNTRIQDLYTVLHKTEDYLRQVLCKAAESVCSRVVQVRKMKAIYHMLNMCSFDVTNKCLIAEVWCPEVDLPGLRRALEEGSRESGATIPSFMNTIPTKETPPTLIRTNKFTEGFQNIVDAYGVGSYREVNPALFTII
modifications: left off: small tags and cut ends
notes: recombinant N-terminal cytosolic tail, amino acid residues 1-402 of mouse V-ATPase a2-subunit
For B1, in the test with ARNO PH-domain, the “interaction of a2N with ARNO PH-domain” value is reported as “weakly”.
